How the values were obtained:
[1] = Solubility and hydrolytic stability in acetic acid; type: physicochemical
Text: Überraschenderweise stellte sich nun heraus, daß man Cetrorelix in 30 %iger VolumenNolumen Essigsäure gut lösen kann. Diese Lösung wird anschließend auf eine Endkonzentration von 3 % Cetrorelix mit Wasser für Injektionszwecke aufgefüllt und Mannit hinzugegeben. […] Lösungen, die nach dieser Methode hergestellt werden, […]

[2] = type: physicochemical
Description: Gemäß vorliegender Anmeldung soll der Wirkstoff subcutan in einer Dosis von 0,1 bis 20 mg appliziert werden können. Die wässrigen Lösungen des Dekapeptids sind instabil, eine Autoklavierung im Endbehälter ist nicht möglich. […] Um eine injizierbare Lösung zu erhalten, war daher die Entwicklung eines Lyophilisats erforderlich. Allerdings ist die Menge des Wirkstoffes in der zu lyophilisierenden Lösung so gering, dass bei niedrigen Wirkstoffkonzentrationen nur ein lockerer Flaum an der Glaswand der Ampulle nach der Trocknung der hilfsstofffreien Lösung resultiert, der mit dem zur Sterilisierung benutzten Wasserdampfstrom aus dem Vial ausgetragen wird. Es ist also erforderlich, einen Gerüstbildner einzusetzen, der einen stabilen Kuchen bildet. Bei hohen Konzentrationen kann auf diesen Hilfsstoff verzichtet werden. Als Gerüstbildner kommen folgende Hilfsstoffe infrage: Hexite, insbesondere Mannit, Glucit, Sorbit, wie D-Sorbit, Dulcit, Allit, Altrit (zum Beispiel D- und L-Altrit), Idit (zum Beispiel D- und L-Idit), deren optisch aktive Formen (D- beziehungsweise L-Formen) sowie die entsprechenden Racemate. Insbesondere wird Mannit, wie D-Mannit, L-Mannit, DL-Mannit, Sorbit und/oder Dulcit verwendet, und zwar hiervon vorzugsweise D-Mannit. Als Hexit können auch Mischungen der genannten Hexite verwendet werden, zum Beispiel Mischungen von Mannit und Sorbit und/oder Dulcit. […]

[3] = tested on: endogene Hormonproduktion (LH-FSH, Estradiol); type: in vivo, Patientinnen
Text: Es hat sich nun herausgestellt, daß der Antagonist Cetrorelix gerade bei dieser Behandlung folgende Vorteile aufweist:
Um eine totale Suppression zu erreichen, genügen bei der Behandlung mit Cetrorelix eine Behandlungsdauer von 5 Tagen. […] Darüber hinaus läßt sich in der 2. Therapiephase, der Ovulationsauslösephase, HMG einsparen. Dies stellt einen nicht unbeträchtlichen Kostenvorteil dieser in-vitro-Fertilisationsbehandlung dar. Die in-vitro-Fertilisation wird beispielsweise beim Vorliegen einer Tubenanomalie eingesetzt. Für diese Therapie ist es notwendig, den Zyklus genau zu kontrollieren und den Zeitpunkt der Ovulation möglichst genau festzulegen. Bisher wurde dies nur eingeschränkt erreicht, da durch Stimulation mit HMG/HCG der präovulatorische LH-Anstieg oft zu früh auftrat oder nicht lange genug aufrechterhalten wurde. Es ist jedoch von entscheidender Bedeutung für den Behandlungserfolg, diesen verfrühten Anstieg zu verhindern, um den Befruchtungszeitpunkt genau festlegen zu können. Dadurch wird die körperliche und psychische Belastung der Patientinnen reduziert und die Kliniklogistik optimal eingesetzt. […]

Cetrorelix
Hydrolyse der endständigen Amidgruppe ([1]; acid medium (acetic acid solution)): nicht festgestellt
Löslichkeit ([1]; in 30 % (volume/volume) acetic acid): gut lösen
Stabilität der wässrigen Lösungen [2]: instabil
Verhalten unter arzneibuchüblicher Sterilisation ([2]; pharmacopoeial sterilisation (autoclaving in final container)): neigt unter arzneibuchüblicher Sterilisation zur Zersetzung
Behandlungsdauer, um eine totale Suppression zu erreichen ([3]; female patients, treatment of infertility): 5 Tagen
Hyperstimulationssyndrom ([3]; in vivo): kann nicht auftreten

Reference: patent EP0947200B1, “Compositions comprising Cetrorelix acetate for the treatment of female infertility and gonadal protection” (Zentaris IVF GmbH, priority 1993, dated 2015)
